Results taken from the CheMixHub ionic liquid set.

Assay: xn = mol fraction of the nth substance listed
Conditions: 100 kPa

CCCCCCCC[n+]1ccccc1.[Br-] + C[C@H](N)C(=O)O + O
Conditions	electrical conductivity [S/m]
288.15 K, x2 = 0.0008949, x1 = 0.005855	1.24
288.15 K, x2 = 0.000895, x1 = 0.005791	1.23
288.15 K, x2 = 0.0008952, x1 = 0.005507	1.2
288.15 K, x2 = 0.0008955, x1 = 0.005201	1.17
288.15 K, x2 = 0.0008958, x1 = 0.004877	1.14
288.15 K, x2 = 0.0008961, x1 = 0.004522	1.1
288.15 K, x2 = 0.0008965, x1 = 0.004131	1.04
288.15 K, x2 = 0.0008969, x1 = 0.003704	0.975
288.15 K, x2 = 0.0008973, x1 = 0.003232	0.884
288.15 K, x2 = 0.0008977, x1 = 0.002757	0.789
288.15 K, x2 = 0.0008982, x1 = 0.002255	0.678
288.15 K, x2 = 0.0008984, x1 = 0.001938	0.603
288.15 K, x2 = 0.0008988, x1 = 0.001556	0.507
288.15 K, x2 = 0.0008991, x1 = 0.001181	0.405
288.15 K, x2 = 0.0008995, x1 = 0.0007571	0.288
288.15 K, x2 = 0.001794, x1 = 0.002782	0.753
288.15 K, x2 = 0.001795, x1 = 0.002177	0.623
288.15 K, x2 = 0.001796, x1 = 0.001292	0.412
288.15 K, x2 = 0.001796, x1 = 0.001777	0.532
288.15 K, x2 = 0.001797, x1 = 0.0008214	0.291
293.15 K, x2 = 0.0008949, x1 = 0.005848	1.41
293.15 K, x2 = 0.000895, x1 = 0.005786	1.4
293.15 K, x2 = 0.0008952, x1 = 0.005501	1.37
293.15 K, x2 = 0.0008955, x1 = 0.005196	1.33
293.15 K, x2 = 0.0008958, x1 = 0.004871	1.29
293.15 K, x2 = 0.0008961, x1 = 0.004517	1.25
293.15 K, x2 = 0.0008965, x1 = 0.004128	1.18
293.15 K, x2 = 0.0008969, x1 = 0.003703	1.1
293.15 K, x2 = 0.0008973, x1 = 0.003228	1
293.15 K, x2 = 0.0008977, x1 = 0.002756	0.894
293.15 K, x2 = 0.0008982, x1 = 0.002254	0.766
293.15 K, x2 = 0.0008984, x1 = 0.001937	0.68
293.15 K, x2 = 0.0008988, x1 = 0.001555	0.568
293.15 K, x2 = 0.0008991, x1 = 0.001179	0.455
293.15 K, x2 = 0.0008995, x1 = 0.0007571	0.334
293.15 K, x2 = 0.001794, x1 = 0.00278	0.851
293.15 K, x2 = 0.001795, x1 = 0.002175	0.705
293.15 K, x2 = 0.001796, x1 = 0.001292	0.464
293.15 K, x2 = 0.001796, x1 = 0.001777	0.602
293.15 K, x2 = 0.001797, x1 = 0.0008196	0.325
298.15 K, x2 = 0.0008949, x1 = 0.005843	1.59
298.15 K, x2 = 0.000895, x1 = 0.005779	1.58
298.15 K, x2 = 0.0008952, x1 = 0.005494	1.54
298.15 K, x2 = 0.0008955, x1 = 0.005188	1.5
298.15 K, x2 = 0.0008958, x1 = 0.004866	1.45
298.15 K, x2 = 0.0008961, x1 = 0.004511	1.4
298.15 K, x2 = 0.0008965, x1 = 0.004122	1.32
298.15 K, x2 = 0.0008969, x1 = 0.003697	1.24
298.15 K, x2 = 0.0008973, x1 = 0.003225	1.12
298.15 K, x2 = 0.0008977, x1 = 0.002752	1
298.15 K, x2 = 0.0008982, x1 = 0.002252	0.857
298.15 K, x2 = 0.0008984, x1 = 0.001935	0.762
298.15 K, x2 = 0.0008988, x1 = 0.001553	0.633
298.15 K, x2 = 0.0008991, x1 = 0.001178	0.509
298.15 K, x2 = 0.0008995, x1 = 0.0007571	0.36
298.15 K, x2 = 0.001794, x1 = 0.002776	0.953
298.15 K, x2 = 0.001795, x1 = 0.002171	0.788
298.15 K, x2 = 0.001796, x1 = 0.00129	0.518
298.15 K, x2 = 0.001796, x1 = 0.001774	0.671
298.15 K, x2 = 0.001797, x1 = 0.0008196	0.36
303.15 K, x2 = 0.0008949, x1 = 0.005838	1.78
303.15 K, x2 = 0.000895, x1 = 0.005773	1.77
303.15 K, x2 = 0.0008952, x1 = 0.005489	1.73
303.15 K, x2 = 0.0008955, x1 = 0.005185	1.68
303.15 K, x2 = 0.0008958, x1 = 0.004861	1.62
303.15 K, x2 = 0.0008961, x1 = 0.004508	1.56
303.15 K, x2 = 0.0008965, x1 = 0.004119	1.48
303.15 K, x2 = 0.0008969, x1 = 0.003694	1.38
303.15 K, x2 = 0.0008973, x1 = 0.003221	1.25
303.15 K, x2 = 0.0008977, x1 = 0.002748	1.11
303.15 K, x2 = 0.0008982, x1 = 0.002248	0.952
303.15 K, x2 = 0.0008984, x1 = 0.001933	0.834
303.15 K, x2 = 0.0008988, x1 = 0.001553	0.687
303.15 K, x2 = 0.0008991, x1 = 0.001178	0.563
303.15 K, x2 = 0.0008995, x1 = 0.0007553	0.418
303.15 K, x2 = 0.001794, x1 = 0.002774	1.06
303.15 K, x2 = 0.001795, x1 = 0.002169	0.875
303.15 K, x2 = 0.001796, x1 = 0.001289	0.574
303.15 K, x2 = 0.001796, x1 = 0.001774	0.741
303.15 K, x2 = 0.001797, x1 = 0.0008196	0.4
308.15 K, x2 = 0.000895, x1 = 0.005759	2.02
308.15 K, x2 = 0.000895, x1 = 0.005823	2.04
308.15 K, x2 = 0.0008953, x1 = 0.005478	1.95
308.15 K, x2 = 0.0008955, x1 = 0.005172	1.88
308.15 K, x2 = 0.0008958, x1 = 0.00485	1.8
308.15 K, x2 = 0.0008961, x1 = 0.004497	1.72
308.15 K, x2 = 0.0008965, x1 = 0.00411	1.63
308.15 K, x2 = 0.0008969, x1 = 0.003686	1.51
308.15 K, x2 = 0.0008973, x1 = 0.003214	1.36
308.15 K, x2 = 0.0008977, x1 = 0.002743	1.2
308.15 K, x2 = 0.0008982, x1 = 0.002245	1.02
308.15 K, x2 = 0.0008984, x1 = 0.001928	0.908
308.15 K, x2 = 0.0008988, x1 = 0.001549	0.78
308.15 K, x2 = 0.0008991, x1 = 0.001174	0.643
308.15 K, x2 = 0.0008995, x1 = 0.0007535	0.488
308.15 K, x2 = 0.001794, x1 = 0.002767	1.15
308.15 K, x2 = 0.001795, x1 = 0.002166	0.937
308.15 K, x2 = 0.001796, x1 = 0.001287	0.631
308.15 K, x2 = 0.001796, x1 = 0.001768	0.805
308.15 K, x2 = 0.001797, x1 = 0.0008178	0.46
